In US20110294799A1, “Organic Compounds” (NOVARTIS AG, priority 2007, published 2011):

Experiments:
[1] = biological target: T1, GABA-A alpha1 receptor (alpha 1 subunit together with a beta and a gamma subunit) (Homo sapiens, UniProt P14867+P18507); test: GABA-A receptor modulation, voltage-sensitive dye fluorescence in transfected eukaryotic cell line (alpha1); assay type: cell-based; conditions: compounds at 3 μM, sub-maximal concentration of GABA (EC20); for activation at 3 µM: read-out: alpha1 % mod (percentage of increase of the fluorescent signal compared to signal without the agent)
T1 construct: expressed in transfected cells
T1 sequence (P14867 28-456): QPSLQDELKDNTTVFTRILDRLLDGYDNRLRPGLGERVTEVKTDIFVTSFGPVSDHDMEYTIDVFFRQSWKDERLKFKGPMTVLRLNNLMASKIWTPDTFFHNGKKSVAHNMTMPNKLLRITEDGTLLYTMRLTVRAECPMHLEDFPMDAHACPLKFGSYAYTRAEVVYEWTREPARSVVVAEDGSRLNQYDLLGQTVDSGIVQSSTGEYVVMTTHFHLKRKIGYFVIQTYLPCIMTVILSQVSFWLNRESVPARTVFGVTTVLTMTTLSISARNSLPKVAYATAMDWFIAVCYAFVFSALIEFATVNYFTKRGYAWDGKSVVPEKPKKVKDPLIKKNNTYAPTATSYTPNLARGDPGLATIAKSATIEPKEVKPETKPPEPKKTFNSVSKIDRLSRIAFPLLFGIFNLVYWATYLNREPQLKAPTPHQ
T1 sequence (P47870 25-512 partner limits assumed): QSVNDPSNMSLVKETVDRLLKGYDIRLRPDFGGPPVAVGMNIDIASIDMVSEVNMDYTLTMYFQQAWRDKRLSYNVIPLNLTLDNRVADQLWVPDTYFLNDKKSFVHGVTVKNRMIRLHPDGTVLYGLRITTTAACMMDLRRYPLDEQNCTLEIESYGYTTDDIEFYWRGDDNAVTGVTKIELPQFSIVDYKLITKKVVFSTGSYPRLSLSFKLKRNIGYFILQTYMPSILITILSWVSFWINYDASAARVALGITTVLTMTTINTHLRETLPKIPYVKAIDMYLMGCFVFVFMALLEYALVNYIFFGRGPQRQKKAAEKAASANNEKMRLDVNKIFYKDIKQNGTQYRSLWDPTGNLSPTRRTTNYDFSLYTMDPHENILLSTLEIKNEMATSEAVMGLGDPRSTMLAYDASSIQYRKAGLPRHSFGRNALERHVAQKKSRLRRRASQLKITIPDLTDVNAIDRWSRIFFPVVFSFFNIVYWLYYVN
T1 sequence (P18507 40-467 limits assumed): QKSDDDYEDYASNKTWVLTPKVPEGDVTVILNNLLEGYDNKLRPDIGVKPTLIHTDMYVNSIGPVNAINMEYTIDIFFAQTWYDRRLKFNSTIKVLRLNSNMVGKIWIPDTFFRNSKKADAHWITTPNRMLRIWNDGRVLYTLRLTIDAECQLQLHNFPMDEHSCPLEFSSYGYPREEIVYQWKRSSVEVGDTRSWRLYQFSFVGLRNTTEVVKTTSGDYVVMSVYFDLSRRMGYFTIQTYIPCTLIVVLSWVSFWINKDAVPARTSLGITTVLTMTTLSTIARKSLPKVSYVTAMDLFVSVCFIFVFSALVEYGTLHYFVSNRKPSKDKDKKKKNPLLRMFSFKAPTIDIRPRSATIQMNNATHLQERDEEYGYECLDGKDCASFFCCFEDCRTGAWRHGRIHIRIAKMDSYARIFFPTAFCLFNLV
Source text: (§1) GABA-A receptor modulators show in functional assays a positive modulation of GABA-induced signals. This modulation can be determined in vitro, e.g., at recombinant GABA-A receptors expressed in a mammalian cell line, e.g. by measurement of GABA-A receptor induced changes of the trans-membrane voltage, when using a voltage-sensitive dye and a fluorescence detection system (Adkins, C. E., Pillai, G. V., Kerby, J., Bonnert, T. P., Haldon, C., Mckernan, R. M., Gonzalez, J. E., Oades, K., Whiting, P. J. & Simpson, P. B. [2001]. alpha4beta3delta GABA-A receptors characterized by fluorescence resonance energy transfer-derived measurements of membrane potential. J. Biol. Chem., 276, 38934-38939). In this assay, a modulator compound is pre-applied at different concentrations ranging from 0.1 nM to 10 μM to cells expressing GABA-A receptors and loaded with the voltage-sensitive dye, before, or at the same time as, a sub-maximal concentration of GABA (in the range of from 0.1 to 10 μM) is applied to the cells. The fluorescent signal is correlated with the degree of GABA-A receptor channel opening. This allows the quantification of effects induced by the modulator in a functional manner. By expression of different GABA-A receptor subunit combinations, the differential efficacy of a modulator at different GABA-A receptor variants can be tested. Other functional assays include the electrophysiological recording of Xenopus oocytes or mammalian cells expressing respective receptor variants. In addition, ion flux detectors can be used to functionally study GABA-A receptors in heterologous expression systems. The affinity of a compound to the GABA-A receptor can be measured in radioligand binding experiments using reference ligands containing a radioactive element, e.g., tritiated flumazenil, and intact cells or membrane preparations of cells expressing GABA-A receptors.
(§2) Activity and selectivity of a GABA-A receptor modulator according to the invention can, e.g., be determined in vitro as follows: A transfected eukaryotic cell line expressing the alpha1, alpha2 or alpha3 subunit of the GABA-A receptor together with a beta and a gamma subunit of the GABA-A receptor is incubated with a voltage-sensitive dye, and the effects of an agonist (typically GABA) or modulator addition are recorded in a fluorimetric plate reader. The opening of the GABA-A receptor channel and the subsequent flux of anions through it changes the trans-membrane voltage of the transfected cells, leading to a change in the fluorescent signal of the voltage-sensitive dye. In the presence of the agent of the invention, a sub-maximal concentration of GABA (e.g. an EC20 or an EC50) added to transfected cells expressing the alpha1, alpha2 or alpha3 subunit of the GABA-A receptor will elicit an at least 50%, preferably an at least 80%, ideally an at least 100%, increase, of the fluorescent signal, compared to the fluorescent signal obtained without the agent of the invention. In this assay, agents of the invention modulate the GABA-induced response at concentration from about 0.1 to about 10′000 nM.

[2] = biological target: T2, GABA-A alpha2 receptor (alpha 2 subunit together with a beta and a gamma subunit) (Homo sapiens, UniProt P18507+P47869); test: GABA-A receptor modulation, voltage-sensitive dye fluorescence in transfected eukaryotic cell line (alpha2); assay type: cell-based; conditions: compounds at 3 μM, sub-maximal concentration of GABA (EC20); for activation at 3 µM: read-out: alpha2 % mod (percentage of increase of the fluorescent signal compared to signal without the agent)
T2 construct: expressed in transfected cells
T2 sequence (P47869 29-451): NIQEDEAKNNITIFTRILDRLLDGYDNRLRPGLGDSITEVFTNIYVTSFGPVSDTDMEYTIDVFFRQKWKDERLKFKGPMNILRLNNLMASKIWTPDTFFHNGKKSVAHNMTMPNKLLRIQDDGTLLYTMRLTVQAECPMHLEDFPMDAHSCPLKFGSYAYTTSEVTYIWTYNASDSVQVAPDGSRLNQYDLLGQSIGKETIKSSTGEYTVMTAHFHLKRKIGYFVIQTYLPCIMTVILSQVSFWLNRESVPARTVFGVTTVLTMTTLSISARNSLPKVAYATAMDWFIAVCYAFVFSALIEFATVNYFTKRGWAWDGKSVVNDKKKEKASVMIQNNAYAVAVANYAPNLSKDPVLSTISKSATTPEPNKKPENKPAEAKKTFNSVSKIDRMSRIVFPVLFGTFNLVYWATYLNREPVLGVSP
T2 sequence (P47870 25-512 partner limits assumed): T1 sequence (P47870 25-512 partner limits assumed)
T2 sequence (P18507 40-467 limits assumed): T1 sequence (P18507 40-467 limits assumed)
Source text: as §1, §2

## COc1ccc(-n2nc3c(cnc4ccccc43)c2OCc2ccccc2Cl)cc1 [Example 61, 3-[(2-chlorobenzyl)oxy]-2-(4-methoxyphenyl)-2H-pyrazolo[4,3-c]quinoline]
[1]
  activation at 3 µM: 52%
[2]
  activation at 3 µM: 145%

## N#Cc1ccc2ncc3c(OCc4ccc(Cl)cc4)n(-c4ccccc4)nc3c2c1 [Example 32, 3-[(4-chlorobenzyl)oxy]-2-phenyl-2H-pyrazolo[4,3-c]quinoline-8-carbonitrile]
[1]
  activation at 3 µM: 34%
[2]
  activation at 3 µM: 88%

## Clc1ccccc1COc1c2cnc3ccccc3c2nn1-c1ccccn1 [Example 34, 3-[(2-chlorobenzypoxy]-2-pyridin-2-y1-2H-pyrazolo[4,3-c]quinoline]
[1]
  alpha1 % mod (percentage of increase of the fluorescent signal compared to signal without the agent): 13 % mod
[2]
  alpha2 % mod (percentage of increase of the fluorescent signal compared to signal without the agent): 57 % mod

## Fc1ccc(-n2nc3c(cnc4ccccc43)c2OCc2ccccc2F)cc1 [Example 28, 3-[(2-fluorobenzyl)oxy]-2-(4-fluorophenyl)-2H-pyrazolo[4,3-c]quinoline]
[1]
  activation at 3 µM: 34%
[2]
  activation at 3 µM: 146%

## Clc1ccc(-n2nc3c(cnc4ccccc43)c2OC2CCCC2)cc1 [Example 92, 2-(4-Chloro-phenyl)-3-cyclopentyloxy-2H-pyrazolo[4,3-c]quinoline]
[1]
  activation at 3 µM: 27%
[2]
  activation at 3 µM: 57%

## COc1ccc(-n2nc3c(cnc4ccccc43)c2OCCc2ccc(Cl)cc2)cc1 [Example 14, 3-[2-(4-chlorophenyl)ethoxy]-2-(4-methoxyphenyl)-2H-pyrazolo[4,3-c]quinoline]
[1]
  activation at 3 µM: 3%
[2]
  activation at 3 µM: 34%

## COc1ccc(-n2nc3c(cnc4ccccc43)c2OCc2ccc(C(F)(F)F)cc2)cc1 [Example 1, 2-(4-Methoxy-phenyl)-3-(4-trifluoromethyl-benzyloxy)-2H-pyrazolo[4,3-c]quinoline]
[1]
  activation at 3 µM: 5%
[2]
  activation at 3 µM: 36%

## Clc1ccccc1COc1c2cnc3ccccc3c2nn1-c1ccc2c(c1)OCO2 [Example 59, 2-(1,3-benzodioxo1-5-y1)-3-[(2-chlorobenzypoxy]-2H-pyrazolo[4,3-c]quinoline]
[1]
  alpha1 % mod (percentage of increase of the fluorescent signal compared to signal without the agent): −17 % mod
[2]
  alpha2 % mod (percentage of increase of the fluorescent signal compared to signal without the agent): 66 % mod

## COc1ccc(-n2nc3c(cnc4ccccc43)c2OCCCN2CCN(C)C2=O)cc1 [Example 17, 1-(3-{[2-(4-methoxyphenyl)-2H-pyrazolo[4,3-c]quinolin-3-yl]oxy}propyl)-3-methylimidazolidin-2-one]
[1]
  activation at 3 µM: 262%
[2]
  activation at 3 µM: 577%

## COc1ccc(-n2nc3c(cnc4ccccc43)c2OCCOc2ccccc2)cc1 [Example 13, 2-(4-methoxyphenyl)-3-(2-phenoxyethoxy)-2H-pyrazolo[4,3-c]quinoline]
[1]
  activation at 3 µM: -29%
[2]
  activation at 3 µM: 52%

## Clc1ccc(-n2nc3c(cnc4ccc(-n5ccnc5)cc43)c2OCCc2ccccc2Cl)cc1 [Example 114, 2-(4-Chloro-phenyl)-3-[2-(2-chloro-phenyl)-ethoxy]-8-imidazol-1-yl-2H-pyrazolo[4,3-c]quinoline]
[1]
  activation at 3 µM: 108%
[2]
  activation at 3 µM: 129%

## Fc1cccc2c1ncc1c(OCc3ccc(Cl)cc3)n(-c3ccccc3)nc12 [Example 33, 3-[(4-chlorobenzyl)oxy]-6-fluoro-2-phenyl-2H-pyrazolo[4,3-c]quinoline]
[1]
  activation at 3 µM: 39%
[2]
  activation at 3 µM: 73%

## Clc1ccc(-n2nc3c(cnc4ccccc43)c2OCC2CC2)cc1 [Example 90, 2-(4-Chloro-phenyl)-3-cyclopropylmethoxy-2H-pyrazolo[4,3-c]quinoline]
[1]
  activation at 3 µM: 60%
[2]
  activation at 3 µM: 164%

## Clc1ccc(-n2nc3c(cnc4ccc(-n5ccnc5)cc43)c2OCC2CC2)cc1 [Example 96, 2-(4-Chloro-phenyl)-3-cyclopropylmethoxy-8-imidazol-1-yl-2H-pyrazolo[4,3-c]quinoline]
[1]
  activation at 3 µM: 119%
[2]
  activation at 3 µM: 162%

## Clc1ccc(-n2nc3c(cnc4ccccc43)c2OCCN2CCOCC2)cc1 [Example 93, 2-(4-Chloro-phenyl)-3-(2-morpholin-4-yl-ethoxy)-2H-pyrazolo[4,3-c]quinoline]
[1]
  activation at 3 µM: 17%
[2]
  activation at 3 µM: 81%

## CCCCOc1c2cnc3ccccc3c2nn1-c1ccccc1 [Example 4, 3-butoxy-2-phenyl-2H-pyrazolo[4,3-c]quinoline]
[1]
  activation at 3 µM: 137%
[2]
  activation at 3 µM: 126%

## COc1ccc(-n2nc3c(cnc4ccccc43)c2OCc2ccncc2)cc1 [Example 60, 2-(4-methoxyphenyl)-3-(pyridin-4-ylmethoxy)-2H-pyrazolo[4,3-c]quinoline]
[1]
  activation at 3 µM: 64%
[2]
  activation at 3 µM: 177%
